# Literature values as cited in patent US20140271866A1, “TRANSDERMAL DRUG DELIVERY SYSTEM CONTAINING RIVASTIGMINE” (priority 2013, published 2014).
# Conditions: in vivo
smiles,measurement,value
"CCN(C)C(=O)Oc1cccc([C@H](C)N(C)C)c1 [Rivastigmine, rivastigmine]",half-life,about 1.5 hours
